# Experimental data as given in EP0483271B1, “PEPTIDES CONTAINING DIAMINO-GLYCOLS AS TRANSITION-STATE MIMICS” (THE UPJOHN COMPANY, priority 1989, dated 1993).
# Where a name gives a salt, the structure may show the parent alone.
# Tested on: renin
# Test: renin inhibitory activity, in vitro test (as described in US-A-4880781 and EP-A-0 173 481, pages 103-105)
# Type: biochemical
# Details: at 10⁻⁸M; printed under the heading IC₅₀(M)
# Experimental: In the examples below, the renin inhibitory activity of the compounds of the present invention (IC₅₀'s) are determined using the in vitro test described in US-A-4880 781 (U.S. patent application, Serial No. 07/147,073, filed 20 January 1988), and in EP-A-0 173 481, published 5 March 1986, pages 103-105, which are hereby incorporarted by reference.
structure (smiles),measurement,value
"COc1ccc(C[C@H](NC(=O)[C@@H]2CCCN2C(=O)CC[C@H](N)C(=O)O)C(=O)N[C@@H](Cc2c[nH]cn2)C(=O)N[C@@H](CC2CCCCC2)[C@@H](O)[C@@H](O)CC(C)(C)N)cc1 [Example 7, L-Arabino-heptitol6-amino-1,2,5,6,7-pentadeoxy-1-cyclohexyl-2-[[N-[N-(1-L-γ-glutamyl-L-prolyl)-O-methyl-L-tyrosyl]-L-histidyl]-amino]-6-methyl-, tris(trisluoroacetate) salt]",inhibition,34%
